Experimental findings from patent US20100048594A1, “USE OF CYTOHESIN INHIBITORS FOR CHEMICALLY INDUCING LONGEVITY” (RHEINISCHE FRIEDRICH-WILHELMS UNIVERSITAT, priority 2006, published 2010) are described below.

This experiment relates to genes that are controlled via the PI3K-dependent pathway of the insulin receptor signaling pathway. As to the kind of experiment: Expression of insulin-regulated gluconeogenic and glycolytic genes in mouse liver after feeding (quantitative PCR). In kind it is in vivo, C57BL/6 mice. The note with it: food with 0.9 μmol/g compound for 3 days, 40 μg insulin i.p. From the text: C57BL/6 mice (Charles River Laboratories) that had been kept in a pathogen-free animal facility, maintaining a 12-hour light/dark cycle, were used. The animals received standard mouse food (19% protein, 3.3% fat, 41.3% carbohydrates; ssniff Spezialdiäten GmbH) ad libitum. Male animals between the ages of 8 and 12 weeks were used.
A group of 6 C57BL/6 mice received standard mouse food mixed with 0.9 μmol/g of the compound according to formula (9) for a period of 3 days, while a control group of 6 animals received standard mouse food. The animals were then injected intraperitoneally with 100 μl normal saline solution (control group) or saline solution with 40 μg recombinant human insulin (Sigma). […]
Total RNA from 15 mg mouse liver in each case was isolated using the Absolutely RNA Kit (Stratagene) and the cDNA was produced via the reverse transcription of 2 μg RNA using the High Capacity cDNA Archive Kit (Applied Biosystems), according to the manufacturer's instructions. Quantitative PCR was performed in 10 μl batches in an iQ5-Cycler (BioRad) by means of the TaqMan Gene Expression Assay (Applied Biosystems) using primers (Applied Biosystems), against lgfbp1, Fbp2, Pck1, Pck2, G6 pc, Hk2, Pklr, Gck, Gckr, according to the manufacturer's instructions. […]

Each structure is given as a SMILES string.

In the case of `COc1nc(-c2ccc3c(c2)OCO3)n(-c2ccc(NC(=O)CSc3ccccc3)cc2)n1` [Compound (9)], the “expression of the glycolytic gene induced by insulin” value is “decreased to a statistically significant degree” and the “expression of the studied gluconeogenic gene, suppressed by insulin” value is reported as “increased”.
